The test system of data set [1] is HIV-1 strain LAI. The experiment in a line: Cellular anti-HIV assay (MTT), wild type strain. Type of data set: cell-based. The note with it: for pEC50: MT4 cells, five days, MTT, HIV-1 strain LAI, Tables 1-6; for WT (pEC50 against wild type HIV-LAI strain): Table 8. As for the experimental part: The compounds of the present invention were examined for anti-viral activity in a cellular assay. […] The cellular assay was performed according to the following procedure.

Data set [2] concerns HIV strain A. Nature of the data set: Cellular anti-HIV assay, clinically isolated mutant strain A. The format is cell-based. The conditions noted are these: FR=EC50 (mutant strain)/EC50 (HIV-1 strain LAI). As to the method:
(§1) HIV- or mock-infected MT4 cells were incubated for five days in the presence of various concentrations of the inhibitor. […] Cell viability is measured by measuring the concentration of MTT, a yellow, water soluble tetrazolium dye that is converted to a purple, water insoluble formazan in the mitochondria of living cells only. Upon solubilization of the resulting formazan crystals with isopropanol, the absorbance of the solution is monitored at 540 nm. The values correlate directly to the number of living cells remaining in the culture at the completion of the five day incubation. The inhibitory activity of the compound was monitored on the virus-infected cells and was expressed as EC50 and EC90. These values represent the amount of the compound required to protect 50% and 90%, respectively, of the cells from the cytopathogenic effect of the virus. […] The selectivity index (SI) (ratio CC50/EC50) is an indication of the selectivity of the anti-HIV activity of the inhibitor. Wherever results are reported as e.g. pEC50 or pCC50 values, the result is expressed as the negative logarithm of the result expressed as EC50 or CC50 respectively.
(§2) Because of the increasing emergence of drug resistant HIV strains, the present compounds were tested for their potency against clinically isolated HIV strains harboring several mutations (Table 7 and 8).
(§3) As a measure of the broad spectrum activity of the present compounds, the fold resistance (FR), defined as FR=EC50 (mutant strain)/EC50 (HIV-1 strain LAI), was determined.

Data set [3] has as its system HIV strain B. Nature of the data set: Cellular anti-HIV assay, clinically isolated mutant strain B. The conditions noted are these: FR=EC50 (mutant strain)/EC50 (HIV-1 strain LAI). The format is cell-based. As for the experimental part:
as §1, §2, §3

Data set [4] deals with HIV strain C. The experiment in a line: Cellular anti-HIV assay, clinically isolated mutant strain C. The format is cell-based. The conditions noted are these: FR=EC50 (mutant strain)/EC50 (HIV-1 strain LAI). As for the experimental part:
as §1, §2, §3

Data set [5] relates to HIV strain E. Nature of the data set: Cellular anti-HIV assay, clinically isolated mutant strain E. Type of data set: cell-based. The note with it: FR=EC50 (mutant strain)/EC50 (HIV-1 strain LAI). As to the method:
as §1, §2, §3

Data set [6] concerns mock-infected MT4 cells. The experiment in a line: Toxicity on mock-infected cells (MTT). As for the experimental part:
as §1, §3

For data set [7], the system named is HIV strain D. Nature of the data set: Cellular anti-HIV assay, clinically isolated mutant strain D. The format is cell-based. The conditions noted are these: FR=EC50 (mutant strain)/EC50 (HIV-1 strain LAI). As to the method:
as §1, §2, §3

Where [8] appears, read: pCC50 with mock transfected cells.

Where two headings read alike, the source gives them in different places.

By pEC50 is commonly meant the negative decadic logarithm of the EC50, by convention in mol/L. Read a low pEC50 as a large EC50. As for `CC(C)CN(CC(O)C(Cc1ccccc1)NC(=O)OC1COC2OCCC12)S(=O)(=O)c1ccc(-c2csc(Nc3ccncc3)n2)cc1` (stereo not drawn) [Compound 5], in data set [1], the pEC50 was 7.6 and the “WT (pEC50 against wild type HIV-LAI strain)” value (“WT” below) came to 7.6. The “A (FR value towards mutant A)” value in data set [2] is given as 22.3. Also, in data set [3], the “B (FR towards mutant B)” value came out at 6.3. Further, the “C (FR towards mutant C)” value in data set [4] turned out to be 3.0. In addition, the “E (FR towards mutant E)” value in data set [5] came out at 13.5. Besides, in data set [6] (setting [8]), the “Tox (pCC50)” value is reported as 4.95.

For the compound `Cc1sc(N)nc1-c1ccc(S(=O)(=O)N(CC(C)C)CC(O)C(Cc2ccccc2)NC(=O)OC2COC3OCCC23)cc1` (stereo not drawn) [Compound 7], the pEC50 in data set [1] was 7.3.

In data set [1], `Cc1cccc(C)c1OCC(=O)N[C@@H](Cc1ccccc1)[C@H](O)CN(CC(C)C)S(=O)(=O)c1ccc(-c2csc(N)n2)cc1` [Compound 8] yielded a pEC50 of 5.9.

For the compound `CNc1nc(-c2ccc(S(=O)(=O)N(CC(C)C)C[C@@H](O)[C@H](Cc3ccccc3)NC(=O)COc3c(C)cccc3C)cc2)cs1` [Compound 9], the negative logarithm of the EC50 (pEC50) in data set [1] amounted to 5.9.

Consider `CC(C)CN(C[C@@H](O)[C@H](Cc1ccccc1)NC(=O)OCc1cncs1)S(=O)(=O)c1ccc(-c2csc(Nc3ccncc3)n2)cc1` [Compound 10], for which the pEC50 in data set [1] worked out at 5.5.

For the compound `Cc1cccc(C)c1OCC(=O)N[C@@H](Cc1ccccc1)[C@H](O)CN(CC(C)C)S(=O)(=O)c1ccc(-c2csc(Nc3ccncc3)n2)cc1` [Compound 11], in data set [1], the pEC50 worked out at 5.4.

For the compound `CC(=O)Nc1nc(-c2ccc(S(=O)(=O)N(CC(C)C)C[C@@H](O)[C@H](Cc3ccccc3)NC(=O)COc3c(C)cccc3C)cc2)cs1` [Compound 12], the negative logarithm of the EC50 (pEC50) in data set [1] was found to be 5.3.

Consider `Cc1cc(Br)cc(C)c1OCC(=O)N[C@@H](Cc1ccccc1)[C@H](O)CN(CC(C)C)S(=O)(=O)c1ccc(-c2csc(N)n2)cc1` [Compound 13], for which the pEC50 in data set [1] is reported as 5.3.

The compound `CCNc1nc(-c2ccc(S(=O)(=O)N(CC(C)C)C[C@@H](O)[C@H](Cc3ccccc3)NC(=O)COc3c(C)cccc3C)cc2)cs1` [Compound 15] yielded a pEC50 in data set [1] of 5.3.

In data set [1], `C=CCNc1nc(-c2ccc(S(=O)(=O)N(CC(C)C)C[C@@H](O)[C@H](Cc3ccccc3)NC(=O)COc3c(C)cccc3C)cc2)cs1` [Compound 16] yielded a negative-log EC50 (pEC50) of 5.1.

For `CC(=O)Nc1nc(-c2ccc(S(=O)(=O)N(CC(C)C)C[C@@H](O)[C@H](Cc3ccccc3)NC(=O)COc3c(C)cc(Br)cc3C)cc2)cs1` [Compound 17], the negative logarithm of the EC50 (pEC50) in data set [1] is listed as 4.2.

Take `C=CCNc1nc(-c2ccc(S(=O)(=O)N(CC(C)C)C[C@@H](O)[C@H](Cc3ccccc3)NC(=O)COc3c(C)cc(Br)cc3C)cc2)cs1` [Compound 18]: the pEC50 in data set [1] worked out at 4.4.

`CCNc1nc(-c2ccc(S(=O)(=O)N(CC(C)C)C[C@@H](O)[C@H](Cc3ccccc3)NC(=O)COc3c(C)cc(Br)cc3C)cc2)cs1` [Compound 19]: the pEC50 in data set [1] was found to be 4.6.

In data set [1], `Cc1cc(Br)cc(C)c1OCC(=O)N[C@@H](Cc1ccccc1)[C@H](O)CN(CC(C)C)S(=O)(=O)c1ccc(-c2csc(Nc3ccncc3)n2)cc1` [Compound 21] registered a pEC50 of 4.7.

`Cc1cccc(C)c1OCC(=O)N[C@@H](Cc1ccccc1)[C@H](O)CN(CC(C)C)S(=O)(=O)c1ccc(-c2cc[nH]n2)cc1` [Compound 24, [(1S,2R)-2-hydroxy-3-[N-(2-methylpropyl)-N-(4-pyrazol-3(5)-ylphenylsulfonyl)-amino]-1-(phenylmethyl)propyl]-(2,6-dimethylphenoxy) acetamide]: in data set [1], the pEC50 stood at 7.1 and the “WT” value amounted to 7.1. For the same compound, the “A (FR value towards mutant A)” value in data set [2] was determined as 1.1. The “E (FR towards mutant E)” value in data set [5] is reported as 3.1. The “Tox (pCC50)” value in data set [6] (setting [8]) is 4.2.

The compound `Cc1cccc(C)c1OCC(=O)N[C@@H](Cc1ccccc1)[C@H](O)CN(CC(C)C)S(=O)(=O)c1ccc(-c2ccnn2C)cc1` [Compound 25] returned a pEC50 in data set [1] of 5.9.

`Cc1cccc(C)c1OCC(=O)N[C@@H](Cc1ccccc1)[C@H](O)CN(CC(C)C)S(=O)(=O)c1ccc(-c2ccnn2C(C)(C)C)cc1` [Compound 27] gave a pEC50 in data set [1] of 5.2.

With `Cc1cccc(C)c1OCC(=O)N[C@@H](Cc1ccccc1)[C@H](O)CN(CC(C)C)S(=O)(=O)c1ccc(-c2ccnn2Cc2ccccc2)cc1` [Compound 28], in data set [1], the pEC50 is 5.2.

Consider `CCn1nccc1-c1ccc(S(=O)(=O)N(CC(C)C)C[C@@H](O)[C@H](Cc2ccccc2)NC(=O)COc2c(C)cccc2C)cc1` [Compound 29], for which the pEC50 in data set [1] worked out at 5.2.

`CCCn1nccc1-c1ccc(S(=O)(=O)N(CC(C)C)C[C@@H](O)[C@H](Cc2ccccc2)NC(=O)COc2c(C)cccc2C)cc1` [Compound 30]: in data set [1], the pEC50 was 5.0.

Regarding `Cc1nc(-c2ccc(S(=O)(=O)N(CC(C)C)CC(O)C(Cc3ccccc3)NC(=O)OC3COC4OCCC34)cc2)c[nH]1` (stereo not drawn) [Compound 31], in data set [1], the pEC50 is given as 7.6.

`CC(C)CN(CC(O)C(Cc1ccccc1)NC(=O)OC1COC2OCCC12)S(=O)(=O)c1ccc(-c2c[nH]c(N)n2)cc1` (stereo not drawn) [Compound 34] yielded a pEC50 in data set [1] of 6.2.

With `Cc1nc(-c2ccc(S(=O)(=O)N(CC(C)C)C[C@@H](O)[C@H](Cc3ccccc3)NC(=O)OCc3cncs3)cc2)co1` [Compound 36, [(1S,2R)-2-hydroxy-3-[N-[4-(2-methyloxazol-4-yl)phenylsulfonyl]-N-(2-methylpropyl)amino]-1-(phenylmethyl)propyl]carbamic acid, (thiazol-5-ylmethyl)ester], the pEC50 in data set [1] is reported as 6.3.

`CC(C)CN(CC(O)C(Cc1ccccc1)NC(=O)OC1COC2OCCC12)S(=O)(=O)c1ccc(-c2coc(N)n2)cc1` (stereo not drawn) [Compound 37] returned a pEC50 in data set [1] of 8.4.

On to `CC(C)CN(CC(O)C(Cc1ccccc1)NC(=O)OC1COC2OCCC12)S(=O)(=O)c1ccc(-c2coc(COCc3ccccc3)n2)cc1` (stereo not drawn) [Compound 39], for which, in data set [1], the pEC50 came to 8.1 and the “WT” value worked out at 8.1. Besides, the “A (FR value towards mutant A)” value in data set [2] was 36. Also, the “E (FR towards mutant E)” value in data set [5] was found to be 52. Besides, the “Tox (pCC50)” value in data set [6] is recorded as less than 4.0.

As for `CC(C)CN(CC(O)C(Cc1ccccc1)NC(=O)OC1COC2OCCC12)S(=O)(=O)c1ccc(-c2coc(CCC(=O)O)n2)cc1` (stereo not drawn) [Compound 41], the pEC50 in data set [1] was determined as 7.2.

As to `CC(C)CN(CC(O)C(Cc1ccccc1)NC(=O)OC1COC2OCCC12)S(=O)(=O)c1ccc(-c2coc(-c3ccc4c(c3)OCO4)n2)cc1` (stereo not drawn) [Compound 45], the pEC50 in data set [1] is 7.8.

Regarding `CC(C)CN(CC(O)C(Cc1ccccc1)NC(=O)OC1COC2OCCC12)S(=O)(=O)c1ccc(-c2coc(-c3ccc(I)cc3)n2)cc1` (stereo not drawn) [Compound 47], the negative-log EC50 (pEC50) in data set [1] was 7.1.

Regarding `CC(C)Cc1nc(-c2ccc(S(=O)(=O)N(CC(C)C)CC(O)C(Cc3ccccc3)NC(=O)OC3COC4OCCC34)cc2)co1` (stereo not drawn) [Compound 49], in data set [1], the pEC50 is given as 8.1 and the “WT” value was 8.1. Moreover, in data set [3], the “B (FR towards mutant B)” value is recorded as 21. Also, the “C (FR towards mutant C)” value in data set [4] came to 4.4. Further, the “E (FR towards mutant E)” value in data set [5] is 10. The “Tox (pCC50)” value in data set [6] is less than 4.49.

On to `CC(C)CN(CC(O)C(Cc1ccccc1)NC(=O)OC1COC2OCCC12)S(=O)(=O)c1ccc(-c2coc(-c3cccs3)n2)cc1` (stereo not drawn) [Compound 50], for which, in data set [1], the pEC50 was determined as 8.0 and the “WT” value was 8.0. For the same compound, the “B (FR towards mutant B)” value in data set [3] was 14. The “C (FR towards mutant C)” value in data set [4] was found to be 4.3. Further, the “D (FR towards mutant D)” value in data set [7] worked out at 13. In data set [6], the “Tox (pCC50)” value is listed as less than 4.49.

For `CC(C)CN(CC(O)C(Cc1ccccc1)NC(=O)OC1COC2OCCC12)S(=O)(=O)c1ccc(-c2coc(-c3ccc(Br)cc3)n2)cc1` (stereo not drawn) [Compound 51], in data set [1], the pEC50 is recorded as 7.5 and the “WT” value came to 7.5. Moreover, the “C (FR towards mutant C)” value in data set [4] amounted to 4.8. The “D (FR towards mutant D)” value in data set [7] is on record as 12. Further, in data set [5], the “E (FR towards mutant E)” value is recorded as 4.8. Also, in data set [6] (setting [8]), the “Tox (pCC50)” value is listed as less than 4.49.

Compound `CC(C)CN(CC(O)C(Cc1ccccc1)NC(=O)OC1COC2OCCC12)S(=O)(=O)c1ccc(-c2cn3ccsc3n2)cc1` (stereo not drawn) [Compound 53] gave a negative-log EC50 (pEC50) in data set [1] of 7.6.

In data set [1], `CC(C)CN(C[C@@H](O)[C@H](Cc1ccccc1)NC(=O)O[C@H]1CO[C@H]2OCC[C@H]21)S(=O)(=O)c1ccc(-c2cnccn2)cc1` [Compound 56, [(1S,2R)-2-hydroxy-3-[N-(2-methylpropyl)-N-[4-(pyrazin-2-yl)-phenylsulfonyl]amino]-1-(phenylmethyl)propyl]carbamic acid, [(3R,3aS,6aR)-hexahydrofuro[2,3-b]furan-3-yl]ester] returned a pEC50 of 8.1.

`CC(C)CN(CC(O)C(Cc1ccccc1)NC(=O)OC1COC2OCCC12)S(=O)(=O)c1ccc(-c2nc(N)nc(N)n2)cc1` (stereo not drawn) [Compound 58] came in with a pEC50 in data set [1] of 6.0.

The values above are taken from patent US7763641B2, “Broadspectrum heterocyclic substituted phenyl containing sulfonamide HIV protease inhibitors” (Tibotec Pharmaceuticals Ltd., priority 2001, dated 2010).
